Assay results reported in the NIST ThermoML archive (doi:10.1016/j.tca.2013.08.031).

Experiment: molar heat capacity at constant volume
Conditions: Fluid (supercritical or subcritical phases), Vacuum adiabatic calorimetry

CCC(C)O (stereo unspecified) [butan-2-ol]
Conditions | molar heat capacity at constant volume [J/K/mol]
533.36 K, Mass density=301.19 kg/m3 | 394.33
533.36 K, Mass density=347.06 kg/m3 | 375.06
533.36 K, Mass density=474.07 kg/m3 | 196.42
533.54 K, Mass density=184.89 kg/m3 | 510.48
533.54 K, Mass density=198.25 kg/m3 | 497.8
533.54 K, Mass density=245.67 kg/m3 | 452.07
533.54 K, Mass density=284.93 kg/m3 | 412.49
533.54 K, Mass density=286.65 kg/m3 | 422.42
533.54 K, Mass density=301.19 kg/m3 | 399.52
533.54 K, Mass density=347.06 kg/m3 | 375.06
533.54 K, Mass density=474.07 kg/m3 | 196.42
533.68 K, Mass density=286.65 kg/m3 | 420.64
533.72 K, Mass density=184.89 kg/m3 | 467.11
533.72 K, Mass density=198.25 kg/m3 | 506.55
533.72 K, Mass density=245.67 kg/m3 | 456.07
533.72 K, Mass density=284.93 kg/m3 | 412.86
533.72 K, Mass density=301.19 kg/m3 | 403.96
533.72 K, Mass density=347.06 kg/m3 | 377.28
533.74 K, Mass density=184.89 kg/m3 | 332.58
533.76 K, Mass density=184.89 kg/m3 | 294.56
533.78 K, Mass density=184.89 kg/m3 | 303.68
533.8 K, Mass density=184.89 kg/m3 | 307.31
533.81 K, Mass density=184.89 kg/m3 | 283.59
533.91 K, Mass density=198.25 kg/m3 | 508.47
533.91 K, Mass density=245.67 kg/m3 | 462
533.91 K, Mass density=284.93 kg/m3 | 414.71
533.91 K, Mass density=286.65 kg/m3 | 429.46
533.91 K, Mass density=301.19 kg/m3 | 408.41
533.91 K, Mass density=347.06 kg/m3 | 375.06
534.09 K, Mass density=198.25 kg/m3 | 520.78
534.09 K, Mass density=245.67 kg/m3 | 460.22
534.09 K, Mass density=279.19 kg/m3 | 425.38
534.09 K, Mass density=284.93 kg/m3 | 420.86
534.09 K, Mass density=301.19 kg/m3 | 412.12
534.09 K, Mass density=347.06 kg/m3 | 382.47
534.27 K, Mass density=198.25 kg/m3 | 538.57
534.27 K, Mass density=245.67 kg/m3 | 465.85
534.27 K, Mass density=279.19 kg/m3 | 430.42
534.27 K, Mass density=284.93 kg/m3 | 420.42
534.27 K, Mass density=286.65 kg/m3 | 436.5
534.27 K, Mass density=347.06 kg/m3 | 387.66
534.46 K, Mass density=198.25 kg/m3 | 527.82
534.46 K, Mass density=245.67 kg/m3 | 472.82
534.46 K, Mass density=279.19 kg/m3 | 435.09
534.46 K, Mass density=284.93 kg/m3 | 425.75
534.46 K, Mass density=286.65 kg/m3 | 439.47
534.46 K, Mass density=301.19 kg/m3 | 418.79
534.46 K, Mass density=347.06 kg/m3 | 400.26
534.64 K, Mass density=184.89 kg/m3 | 279.36
534.64 K, Mass density=198.25 kg/m3 | 354.23
534.64 K, Mass density=245.67 kg/m3 | 484.53
534.64 K, Mass density=276.45 kg/m3 | 433.39
534.64 K, Mass density=279.19 kg/m3 | 437.91
534.64 K, Mass density=284.93 kg/m3 | 426.57
534.64 K, Mass density=301.19 kg/m3 | 421.75
534.64 K, Mass density=347.06 kg/m3 | 353.56
534.64 K, Mass density=403.55 kg/m3 | 223.85
534.82 K, Mass density=198.25 kg/m3 | 329.47
534.82 K, Mass density=245.67 kg/m3 | 491.43
534.82 K, Mass density=276.45 kg/m3 | 435.91
534.82 K, Mass density=279.19 kg/m3 | 441.54
534.82 K, Mass density=284.93 kg/m3 | 430.13
534.82 K, Mass density=301.19 kg/m3 | 429.16
534.82 K, Mass density=347.06 kg/m3 | 246.08
534.82 K, Mass density=403.55 kg/m3 | 223.11
535.01 K, Mass density=198.25 kg/m3 | 313.31
535.01 K, Mass density=245.67 kg/m3 | 498.39
535.01 K, Mass density=276.45 kg/m3 | 443.47
535.01 K, Mass density=284.93 kg/m3 | 435.02
535.01 K, Mass density=301.19 kg/m3 | 431.39
535.01 K, Mass density=347.06 kg/m3 | 242.38
535.01 K, Mass density=403.55 kg/m3 | 225.33
535.19 K, Mass density=198.25 kg/m3 | 319.91
535.19 K, Mass density=245.67 kg/m3 | 508.62
535.19 K, Mass density=276.45 kg/m3 | 453.85
535.19 K, Mass density=279.19 kg/m3 | 457.11
535.19 K, Mass density=284.93 kg/m3 | 440.21
535.19 K, Mass density=301.19 kg/m3 | 440.28
535.19 K, Mass density=347.06 kg/m3 | 243.12
535.19 K, Mass density=403.55 kg/m3 | 223.11
535.37 K, Mass density=184.89 kg/m3 | 286.33
535.37 K, Mass density=198.25 kg/m3 | 301.3
535.37 K, Mass density=245.67 kg/m3 | 516.03
535.37 K, Mass density=276.45 kg/m3 | 460.59
535.37 K, Mass density=279.19 kg/m3 | 465.85
535.37 K, Mass density=284.93 kg/m3 | 441.02
535.37 K, Mass density=286.65 kg/m3 | 467.56
535.37 K, Mass density=301.19 kg/m3 | 445.47
535.37 K, Mass density=403.55 kg/m3 | 219.4
535.55 K, Mass density=184.89 kg/m3 | 286.55
535.55 K, Mass density=245.67 kg/m3 | 535.08
535.55 K, Mass density=276.45 kg/m3 | 474.75
535.55 K, Mass density=279.19 kg/m3 | 472.08
535.55 K, Mass density=284.93 kg/m3 | 454.96
535.55 K, Mass density=286.65 kg/m3 | 474.38
535.55 K, Mass density=301.19 kg/m3 | 458.07
535.55 K, Mass density=347.06 kg/m3 | 243.12
535.55 K, Mass density=403.55 kg/m3 | 220.88
535.74 K, Mass density=198.25 kg/m3 | 286.33
535.74 K, Mass density=245.67 kg/m3 | 563.92
535.74 K, Mass density=276.45 kg/m3 | 489.72
535.74 K, Mass density=279.19 kg/m3 | 488.09
535.74 K, Mass density=284.93 kg/m3 | 470.52
535.74 K, Mass density=286.65 kg/m3 | 487.57
535.74 K, Mass density=301.19 kg/m3 | 477.34
535.74 K, Mass density=347.06 kg/m3 | 249.05
